Measured values as given in PMC8119466, “A screen of FDA-approved drugs identifies inhibitors of protein tyrosine phosphatase 4A3 (PTP4A3 or PRL-3)” (Scientific Reports, 2021).
Structures can show the parent of a compound that is named as a salt. Where two headings read alike, the source gives them in different places.

Assays:
Type in all cases: biochemical
[1] = biological target: T1, recombinant PRL-1 (Homo sapiens, UniProt Q93096); assay: In vitro phosphatase assay (DiFMUP hydrolysis), PRL-1; further: test concentration or dose not given here
T1 construct: 6xHis (N, cleaved yes); made in house; host or cells: E. coli One Shot BL21 Star
T1 sequence (Q93096 1-173): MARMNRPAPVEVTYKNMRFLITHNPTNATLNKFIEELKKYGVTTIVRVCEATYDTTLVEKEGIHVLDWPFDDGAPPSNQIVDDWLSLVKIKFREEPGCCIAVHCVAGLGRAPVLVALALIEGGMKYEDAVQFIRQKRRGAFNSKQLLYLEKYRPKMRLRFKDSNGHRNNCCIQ

[2] = biological target: T2, recombinant PRL-2 (Homo sapiens, UniProt Q12974); assay: In vitro phosphatase assay (DiFMUP hydrolysis), PRL-2;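 further: PRL-2 activity read as DiFMUP hydrolysis after 20 min at room temperature with drug, enzyme first pre-reduced at 4 °C for 20 min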
T2 construct: 6xHis (N, cleaved yes); made in house; host or cells: E. coli One Shot BL21 Star
T2 sequence (Q12974 1-167): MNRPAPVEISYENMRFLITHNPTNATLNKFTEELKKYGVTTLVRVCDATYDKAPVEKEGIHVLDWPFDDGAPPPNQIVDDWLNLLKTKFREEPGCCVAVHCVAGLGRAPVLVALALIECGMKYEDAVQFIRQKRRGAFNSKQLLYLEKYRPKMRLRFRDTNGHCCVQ

[3] = biological target: T3, recombinant PRL-3 (Homo sapiens, UniProt O75365); assay: In vitro phosphatase assay (DiFMUP hydrolysis), PRL-3; further: test concentration or dose not given here
T3 construct: 6xHis (N, cleaved yes); made in house; host or cells: E. coli One Shot BL21 Star

[4] = FDA-approved drug screen, compared to DMSO

T3 sequence (O75365 whole entry): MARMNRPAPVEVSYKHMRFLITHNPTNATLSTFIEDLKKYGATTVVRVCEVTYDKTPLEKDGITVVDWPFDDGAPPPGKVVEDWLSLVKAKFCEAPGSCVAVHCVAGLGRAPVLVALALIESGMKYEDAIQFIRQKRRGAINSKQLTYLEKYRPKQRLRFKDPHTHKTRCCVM

Compound | % Phosphatase Activity (compared to DMSO) PRL-1 [1, 4] [%] | % Phosphatase Activity (compared to DMSO) PRL-2 [2, 4] [%] | % Phosphatase Activity (compared to DMSO) PRL-3 [3, 4] [%] | % Phosphatase Activity (compared to DMSO) PRL-1 [1] [%] | % Phosphatase Activity (compared to DMSO) PRL-2 [2] [%] | % Phosphatase Activity (compared to DMSO) PRL-3 [3] [%]
COc1c(N2C[C@@H]3CCCN[C@@H]3C2)c(F)cc2c(=O)c(C(=O)O)cn(C3CC3)c12 [Moxifloxacin HCl] | 562 | 594 | 417 | – | – | –
COc1nc(C)nc(Cl)c1N=C1NCCN1 [Moxonidine] | 105 | 109 | 80 | – | – | –
C/C(=C\C(=O)OCCCCCCCCC(=O)O)C[C@@H]1OC[C@H](C[C@@H]2O[C@H]2[C@@H](C)[C@H](C)O)[C@@H](O)[C@H]1O [Mupirocin] | 92 | 97 | 69 | – | – | –
COc1c(C)c2c(c(O)c1C/C=C(\C)CCC(=O)OCCN1CCOCC1)C(=O)OC2 [Mycophenolate Mofetil] | 131 | 125 | 102 | – | – | –
COc1c(C)c2c(c(O)c1C/C=C(\C)CCC(=O)O)C(=O)OC2 [Mycophenolic acid] | 125 | 100 | 85 | – | – | –
COc1ccc2cc(CCC(C)=O)ccc2c1 [Nabumetone] | 91 | 102 | 68 | – | – | –
CC1CCc2c(N3CCC(O)CC3)c(F)cc3c(=O)c(C(=O)O)cn1c23 (stereo not drawn) [Nadifloxacin] | 133 | 108 | 86 | – | – | –
N=C(N)c1ccc2cc(OC(=O)c3ccc(N=C(N)N)cc3)ccc2c1 [Nafamostat Mesylate] | 204 | 264 | 67 | – | – | –
CCOc1ccc2ccccc2c1C(=O)N[C@@H]1C(=O)N2[C@@H]1SC(C)(C)[C@@H]2C(=O)O [Nafcillin Sodium] | 98 | 108 | 60 | – | – | –
COc1ccccc1N1CCN(CC(O)COc2cccc3ccccc23)CC1 (stereo not drawn) [Naftopidil] | 109 | 111 | 94 | – | – | –
CCn1cc(C(=O)O)c(=O)c2ccc(C)nc21 [Nalidixic acid] | 112 | 122 | 100 | – | – | –
O=C1CC[C@@]2(O)[C@H]3Cc4ccc(O)c5c4[C@@]2(CCN3CC2CC2)[C@H]1O5 [Naltrexone HCl] | 100 | 120 | 95 | – | – | –
CCCCCCCCCC(=O)O[C@H]1CC[C@H]2[C@@H]3CCC4=CC(=O)CC[C@@H]4[C@H]3CC[C@]12C [Nandrolone decanoate] | 93 | 94 | 90 | – | – | –
C[C@]12CC[C@H]3[C@@H](CCC4=CC(=O)CC[C@@H]43)[C@@H]1CC[C@@H]2O [Nandrolone] | – | – | – | 93 | 93 | 78
c1ccc2c(CC3=NCCN3)cccc2c1 [Naphazoline HCl] | 100 | 102 | 83 | – | – | –
CNS(=O)(=O)CCc1ccc2[nH]cc(C3CCN(C)CC3)c2c1 [Naratriptan] | 103 | 86 | 90 | – | – | –
C[C@@H]1C/C=C/C=C/C=C/C=C/[C@H](O[C@@H]2O[C@H](C)[C@@H](O)[C@H](N)[C@@H]2O)C[C@@H]2O[C@](O)(C[C@@H](O)C[C@H]3O[C@@H]3/C=C/C(=O)O1)C[C@H](O)[C@H]2C(=O)O [Natamycin] | 96 | 82 | 78 | – | – | –
CC(C)[C@H]1CC[C@H](C(=O)N[C@H](Cc2ccccc2)C(=O)O)CC1 [Nateglinide] | 92 | 90 | 73 | – | – | –
OC(CNCC(O)C1CCc2cc(F)ccc2O1)C1CCc2cc(F)ccc2O1 (stereo not drawn) [Nebivolol] | 105 | 81 | 87 | – | – | –
[NH2][Pt]1([NH2])[O]CC(=O)[O]1 [Nedaplatin] | 102 | 97 | 94 | – | – | –
